From PubChem BioAssay (NCI)
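Where inhibition never reached the appropriate level, the endpoint shown equals the highest concentration tested. Otherwise, values were interpolated linearly from a five-concentration, 48-hour dose response in 96-well plates. The concentration for 50% growth inhibition is given as GI50. TGI marks complete inhibition of growth.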

Key:
Experiment in all cases: NCI anticancer screen, dose series, 48 h
[1] = test system: SK-MEL-5 melanoma
[2] = test system: SNB-75 CNS
[3] = test system: SF-295 CNS
[4] = test system: SN12C renal
[5] = test system: HCC-2998 colon
[6] = test system: MCF7 breast
[7] = test system: SF-268 CNS
[8] = test system: MALME-3M melanoma
[9] = test system: SK-OV-3 ovarian
[10] = test system: OVCAR-8 ovarian
[11] = test system: SNB-19 CNS
[12] = test system: HCT-15 colon
[13] = test system: MDA-MB-435
[14] = test system: SK-MEL-28 melanoma
[15] = test system: RXF 393 renal
[16] = test system: K-562 leukemia
[17] = test system: DU-145 prostate
[18] = test system: T-47D breast
[19] = test system: HCT-116 colon
[20] = test system: M14 melanoma
[21] = test system: HOP-62 NSCLC
[22] = test system: OVCAR-3 ovarian
[23] = test system: SF-539 CNS
[24] = test system: NCI-H226 lung
[25] = test system: PC-3 prostate
[26] = test system: SR leukemia
[27] = test system: IGROV1 ovarian
[28] = test system: MDA-MB-231 breast
[29] = test system: A498 renal
[30] = test system: EKVX NSCLC
[31] = test system: CAKI-1 renal
[32] = test system: HOP-92 NSCLC
[33] = test system: MDA-MB-468 breast
[34] = test system: SK-MEL-2 melanoma
[35] = test system: KM12 colon
[36] = test system: HL-60(TB) leukemia
[37] = test system: A549 NSCLC
[38] = test system: HS 578T breast
[39] = test system: NCI-H23 lung
[40] = test system: MOLT-4 leukemia
[41] = test system: HT29 colon
[42] = test system: OVCAR-4 ovarian
[43] = test system: NCI-H460 lung
[44] = test system: LOX IMVI melanoma
[45] = test system: BT-549 breast
[46] = test system: UACC-257 melanoma
[47] = test system: UO-31 renal
[48] = test system: RPMI-8226 leukemia
[49] = test system: U251 CNS
[50] = test system: ACHN renal
[51] = test system: SW-620 colon
[52] = test system: UACC-62 melanoma
[53] = test system: OVCAR-5 ovarian
[54] = test system: COLO 205 colon
[55] = test system: 786-0 renal
[56] = test system: TK-10 renal
[57] = test system: CCRF-CEM leukemia
[58] = test system: NCI-H522 lung

For `COc1cc2c(cc1OC)CN(CCCCOc1cc(O)c3c(=O)cc(-c4ccccc4)oc3c1)CC2`, the GI50 [1] was 11 µM, the TGI [1] was 23.5 µM and the GI50 [2] was 4 µM. For the same compound, the TGI [2] was 45.4 µM, the GI50 [3] was 10.7 µM and the TGI [3] was 25 µM. For the same compound, the GI50 [4] was 6.25 µM, the TGI [4] was over 100 µM and the GI50 [5] was 7.91 µM. It also gave a TGI [5] of 22.1 µM, a GI50 [6] of 6.06 µM and a TGI [6] of 35.4 µM. The GI50 [7] was 10.6 µM, the TGI [7] was over 100 µM and the GI50 [8] was 2950 nM. For the same compound, the TGI [8] was 8.16 µM, the GI50 [9] was 15.7 µM and the TGI [9] was 50.8 µM. It also gave a GI50 [10] of 18.9 µM, a TGI [10] of over 100 µM and a GI50 [11] of 28.5 µM. For the same compound, the TGI [11] was over 100 µM, the GI50 [12] was 6.7 µM and the TGI [12] was 31.8 µM. The GI50 [13] was 13.2 µM, the TGI [13] was 41.9 µM and the GI50 [14] was 5.32 µM. For the same compound, the TGI [14] was 19.6 µM, the GI50 [15] was 1690 nM and the TGI [15] was 10.9 µM. The GI50 [16] was 2480 nM, the TGI [16] was 10.8 µM and the GI50 [17] was 32.1 µM. The TGI [17] was over 100 µM, the GI50 [18] was 9.01 µM and the TGI [18] was 65.9 µM. It also gave a GI50 [19] of 3.42 µM, a TGI [19] of 13.4 µM and a GI50 [20] of 2960 nM. For the same compound, the TGI [20] was 11.3 µM, the GI50 [21] was 22.2 µM and the TGI [21] was over 100 µM. It also gave a GI50 [22] of 13.1 µM, a TGI [22] of 50.3 µM and a GI50 [23] of 10.4 µM. For the same compound, the TGI [23] was 23.8 µM, the GI50 [24] was 10.2 µM and the TGI [24] was over 100 µM. The GI50 [25] was 6.44 µM, the TGI [25] was over 100 µM and the GI50 [26] was 1850 nM. For the same compound, the TGI [26] was 4.67 µM, the GI50 [27] was 26.4 µM and the TGI [27] was over 100 µM. The GI50 [28] was 10.6 µM, the TGI [28] was 44.8 µM and the GI50 [29] was 25.8 µM. It also gave a TGI [29] of 63.6 µM, a GI50 [30] of 71 µM and a TGI [30] of over 100 µM. For the same compound, the GI50 [31] was 13.1 µM, the TGI [31] was 97.5 µM and the GI50 [32] was 8.92 µM. It also gave a TGI [32] of over 100 µM, a GI50 [33] of 2070 nM and a TGI [33] of 14 µM. For the same compound, the GI50 [34] was 14 µM, the TGI [34] was 40.1 µM and the GI50 [35] was 10.3 µM. For the same compound, the TGI [35] was 36.9 µM, the GI50 [36] was 2320 nM and the TGI [36] was 13.8 µM. It also gave a GI50 [37] of 16.1 µM, a TGI [37] of over 100 µM and a GI50 [38] of 11.6 µM. The TGI [38] was 52 µM, the GI50 [39] was 24.5 µM and the TGI [39] was over 100 µM. The GI50 [40] was 3.09 µM, the TGI [40] was 19.6 µM and the GI50 [41] was 3.34 µM. For the same compound, the TGI [41] was 12.4 µM, the GI50 [42] was 4.01 µM and the TGI [42] was 91.5 µM. It also gave a GI50 [43] of 7.07 µM, a TGI [43] of 41.5 µM and a GI50 [44] of 4.51 µM. It also gave a TGI [44] of 15.3 µM, a GI50 [45] of 8.53 µM and a TGI [45] of 22.9 µM. It also gave a GI50 [46] of 5.28 µM, a TGI [46] of 18.6 µM and a GI50 [47] of 10.3 µM. For the same compound, the TGI [47] was 26.4 µM, the GI50 [48] was 4.29 µM and the TGI [48] was 24.3 µM. The GI50 [49] was 11.9 µM, the TGI [49] was 56.6 µM and the GI50 [50] was 8.74 µM. For the same compound, the TGI [50] was over 100 µM, the GI50 [51] was 11.3 µM and the TGI [51] was 35.4 µM. The GI50 [52] was 2670 nM, the TGI [52] was 7.92 µM and the GI50 [53] was 40.7 µM. It also gave a TGI [53] of over 100 µM, a GI50 [54] of 3.27 µM and a TGI [54] of 12.6 µM. It also gave a GI50 [55] of 3.53 µM, a TGI [55] of 14.4 µM and a GI50 [56] of 57.4 µM. It also gave a TGI [56] of over 100 µM, a GI50 [57] of 5.17 µM and a TGI [57] of over 100 µM. For the same compound, the GI50 [58] was 12.5 µM and the TGI [58] was 29.4 µM.
